Data from patent US20110045520A1, “FATTY ACID MARKERS FOR THE DIAGNOSIS, PROGNOSIS AND MANAGEMENT OF CARDIOVASCULAR DISEASE” (priority 2007, published 2011).

Biological target: T1, human serum albumin (HSA) in pooled normal serum (Homo sapiens, UniProt P02768)
T1 construct: from tissue; host or cells: pooled normal human serum
Assay: Cobalt binding assay, HSA in pooled normal serum incubated with individual unesterified fatty acids
Conditions: fatty acid:HSA molar ratios of about 8; most apparent with HSA in pooled normal serum
Experimental: The concentrations of twelve unesterified fatty acids were measured in vitro to determine if differences in individual fatty acid levels affect Co(II)—albumin interactions in the cobalt binding assay. The effect of individual fatty acid concentrations on HSA was evaluated in the presence of HSA from two different sources: (1) purified commercial HSA with defined buffer conditions, and (2) USA in pooled normal serum. The cobalt binding assays were performed after incubation of HSA with each unesterified fatty acid for 12 hours at room temperature. The concentrations of the individual FFAs were determined by measuring total FFAs levels before and after the addition of the specific FFAs to pooled normal serum. HSA concentrations were measured by standard colorimetric protein assays. Molar ratios were calculated from the concentration values determined for the individual specific FFAs with respect to the concentrations of HSA measured in each sample.

T1 sequence (P02768 25-609): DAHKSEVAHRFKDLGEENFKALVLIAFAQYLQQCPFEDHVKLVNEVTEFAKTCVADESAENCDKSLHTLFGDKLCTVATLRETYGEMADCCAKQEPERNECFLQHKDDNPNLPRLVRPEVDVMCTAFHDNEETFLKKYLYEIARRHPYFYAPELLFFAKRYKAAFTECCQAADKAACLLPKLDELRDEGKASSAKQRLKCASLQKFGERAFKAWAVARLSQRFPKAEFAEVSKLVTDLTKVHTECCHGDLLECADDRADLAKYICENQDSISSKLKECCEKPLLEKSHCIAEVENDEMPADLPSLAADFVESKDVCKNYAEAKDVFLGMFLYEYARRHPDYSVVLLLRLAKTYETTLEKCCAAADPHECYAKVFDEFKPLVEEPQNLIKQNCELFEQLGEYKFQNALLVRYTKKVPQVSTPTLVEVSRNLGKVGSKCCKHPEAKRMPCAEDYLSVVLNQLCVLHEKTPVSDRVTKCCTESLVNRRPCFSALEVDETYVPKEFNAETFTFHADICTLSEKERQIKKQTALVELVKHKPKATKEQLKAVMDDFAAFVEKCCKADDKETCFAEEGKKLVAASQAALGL

SMILES	effect on the percent reduction of the Co[II]-HSA binding assay
CCCCCCCC/C=C\CCCCCCCC(=O)O [Oleic acid]	significant effect
CCCCC/C=C\C/C=C\C/C=C\C/C=C\CCCC(=O)O [Arachidonic acid]	significant effect
